Test results from patent US9999619B2, “Piperidin-4-yl azetidine derivatives as JAK1 inhibitors” (Incyte Corporation, priority 2010, dated 2018).

Tests used:
Assay type in all cases: biochemical
Jak2 (a.a. 828-1132) = Jak2 (a.a. 828-1132) (Homo sapiens (Human), UniProt O60674); assay: In vitro JAK kinase assay (HTRF, phosphorylation of a biotinylated peptide), JAK2; conditions: measured at 1 mM ATP
How it was run: (§1)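 N-terminal His-tagged catalytic domains, baculovirus-expressed in insect cells, phosphorylated a biotinylated peptide for 1 hr at room temperature. EDTA stop was followed by SA-APC and Eu-Py20 antibody for 40 minutes, with phosphopeptide read by HTRF.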

[1] = target: human JAK1 (a.a. 837-1142) (Homo sapiens, UniProt P23458); assay: In vitro JAK kinase assay (HTRF, phosphorylation of a biotinylated peptide), JAK1; conditions: measured at 1 mM ATP
How it was run: as §1

[2] = target: human JAK1 (a.a. 837-1142); assay: as above; conditions: ratio of JAK2 IC50 to JAK1 IC50, measured at 1 mM ATP
How it was run: as §1

Jak2 (a.a. 828-1132), sequence (O60674 828-1132): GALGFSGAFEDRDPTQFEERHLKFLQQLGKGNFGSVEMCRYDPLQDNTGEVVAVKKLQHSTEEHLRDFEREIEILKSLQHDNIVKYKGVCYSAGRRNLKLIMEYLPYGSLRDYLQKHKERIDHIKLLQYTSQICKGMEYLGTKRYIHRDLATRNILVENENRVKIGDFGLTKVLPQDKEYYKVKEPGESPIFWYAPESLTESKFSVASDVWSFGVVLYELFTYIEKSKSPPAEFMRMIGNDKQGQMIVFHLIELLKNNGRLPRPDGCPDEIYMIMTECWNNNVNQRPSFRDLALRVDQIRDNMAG

| IC50 (Jak2 (a.a. 828-1132)) [nM] | IC50 [1] [nM] | IC50 Ratio JAK2/JAK1 [2] | SMILES |
| --- | --- | --- | --- |
| 50 to 100 | 20 to 30 | 2.2 | N#CCC1(n2cc(-c3ncnc4[nH]ccc34)cn2)CN(C2CCN(Cc3cccc(Oc4ccccc4)c3)CC2)C1 [Example 233, {1-[1-(3-phenoxybenzyl)piperidin-4-yl]-3-[4-(7H-pyrrolo[2,3-d]pyrimidin-4-yl)-1H-pyrazol-1-yl]azetidin-3-yl}acetonitrile] |
| 10 to 50 | ≤ 5 | 4.2 | N#CCC1(n2cc(-c3ncnc4[nH]ccc34)cn2)CN(C2CCN(Cc3ccc4c(c3)OCCO4)CC2)C1 [Example 234, {1-[1-(2,3-dihydro-1,4-benzodioxin-6-ylmethyl)piperidin-4-yl]-3-[4-(7H-pyrrolo[2,3-d]pyrimidin-4-yl)-1H-pyrazol-1-yl]azetidin-3-yl}acetonitrile] |
| 10 to 50 | 5 to 20 | 2.5 | CC(C)(C)C(=O)Nc1ncccc1CN1CCC(N2CC(CC#N)(n3cc(-c4ncnc5[nH]ccc45)cn3)C2)CC1 [Example 235] |
| ≤ 10 | ≤ 5 | 5.5 | N#CCC1(n2cc(-c3ncnc4[nH]ccc34)cn2)CN(C2CCN(Cc3c(C(F)(F)F)ccc(Cl)c3F)CC2)C1 [Example 236, {1-{1-[3-chloro-2-fluoro-6-(trifluoromethyl)benzyl]piperidin-4-yl}-3-[4-(7H-pyrrolo[2,3-d]pyrimidin-4-yl)-1H-pyrazol-1-yl]azetidin-3-yl}acetonitrile] |
| 10 to 50 | 5 to 20 | 2.3 | N#CCC1(n2cc(-c3ncnc4[nH]ccc34)cn2)CN(C2CCN(Cc3c(Cl)cncc3Cl)CC2)C1 [Example 237, {1-{1-[(3,5-dichloropyridin-4-yl)methyl]piperidin-4-yl}-3-[4-(7H-pyrrolo[2,3-d]pyrimidin-4-yl)-1H-pyrazol-1-yl]azetidin-3-yl}acetonitrile] |
| 10 to 50 | ≤ 5 | 6.8 | COc1ccc2nc(Cl)c(CN3CCC(N4CC(CC#N)(n5cc(-c6ncnc7[nH]ccc67)cn5)C4)CC3)cc2c1 [Example 238, {1-{1-[(2-chloro-6-methoxyquinolin-3-yl)methyl]piperidin-4-yl}-3-[4-(7H-pyrrolo[2,3-d]pyrimidin-4-yl)-1H-pyrazol-1-yl]azetidin-3-yl}acetonitrile] |
| 10 to 50 | 5 to 20 | 2.3 | COc1ccc(CN2CCC(N3CC(CC#N)(n4cc(-c5ncnc6[nH]ccc56)cn4)C3)CC2)c(Cl)c1OC [Example 239, {1-[1-(2-chloro-3,4-dimethoxybenzyl)piperidin-4-yl]-3-[4-(7H-pyrrolo[2,3-d]pyrimidin-4-yl)-1H-pyrazol-1-yl]azetidin-3-yl}acetonitrile] |
| 10 to 50 | ≤ 5 | 7.5 | Cn1nccc1S(=O)(=O)N1CCC(N2CC(CC#N)(n3cc(-c4ncnc5[nH]ccc45)cn3)C2)CC1 [Example 246, {1-{1-[(1-Methyl-1H-pyrazol-5-yl)sulfonyl]piperidin-4-yl}-3-[4-(7H-pyrrolo[2,3-d]pyrimidin-4-yl)-1H-pyrazol-1-yl]azetidin-3-yl}acetonitrile] |
| ≤ 10 | ≤ 5 | 5.1 | N#CCC1(n2cc(-c3ncnc4[nH]ccc34)cn2)CN(C2CCN(S(=O)(=O)c3ccccc3C#N)CC2)C1 [Example 247, 2-[(4-{3-(cyanomethyl)-3-[4-(7H-pyrrolo[2,3-d]pyrimidin-4-yl)-1H-pyrazol-1-yl]azetidin-1-yl}piperidin-1-yl)sulfonyl]benzonitrile] |
| > 100 | 20 to 30 | 5.2 | N#CCC1(n2cc(-c3ncnc4[nH]ccc34)cn2)CN(C2CCN(S(=O)(=O)c3cccc(C#N)c3)CC2)C1 [Example 248, 3-[(4-{3-(cyanomethyl)-3-[4-(7H-pyrrolo[2,3-d]pyrimidin-4-yl)-1H-pyrazol-1-yl]azetidin-1-yl}piperidin-1-yl)sulfonyl]benzonitrile] |
| 10 to 50 | 5 to 20 | 2.1 | N#CCC1(n2cc(-c3ncnc4[nH]ccc34)cn2)CN(C2CCN(S(=O)(=O)c3ccc(C#N)cc3)CC2)C1 [Example 249, 4-[(4-{3-(cyanomethyl)-3-[4-(7H-pyrrolo[2,3-d]pyrimidin-4-yl)-1H-pyrazol-1-yl]azetidin-1-yl}piperidin-1-yl)sulfonyl]benzonitrile] |
| 10 to 50 | ≤ 5 | 4.7 | CN(C)c1ccc(S(=O)(=O)N2CCC(N3CC(CC#N)(n4cc(-c5ncnc6[nH]ccc56)cn4)C3)CC2)cc1C#N [Example 250, 5-[(4-{3-(cyanomethyl)-3-[4-(7H-pyrrolo[2,3-d]pyrimidin-4-yl)-1H-pyrazol-1-yl]azetidin-1-yl}piperidin-1-yl)sulfonyl]-2-(dimethylamino)benzonitrile] |
| ≤ 10 | ≤ 5 | 4.9 | Cn1ccc(S(=O)(=O)N2CCC(N3CC(CC#N)(n4cc(-c5ncnc6[nH]ccc56)cn4)C3)CC2)n1 [Example 251, {1-{1-[(1-methyl-1H-pyrazol-3-yl)sulfonyl]piperidin-4-yl}-3-[4-(7H-pyrrolo[2,3-d]pyrimidin-4-yl)-1H-pyrazol-1-yl]azetidin-3-yl}acetonitrile] |
| ≤ 10 | ≤ 5 | 5.8 | N#CCC1(n2cc(-c3ncnc4[nH]ccc34)cn2)CN(C2CCN(S(=O)(=O)C3CCCC3)CC2)C1 [Example 253, {1-[1-(cyclopentylsulfonyl)piperidin-4-yl]-3-[4-(7H-pyrrolo[2,3-d]pyrimidin-4-yl)-1H-pyrazol-1-yl]azetidin-3-yl}acetonitrile] |
| ≤ 10 | ≤ 5 | 5.0 | Cn1cnc(S(=O)(=O)N2CCC(N3CC(CC#N)(n4cc(-c5ncnc6[nH]ccc56)cn4)C3)CC2)c1 [Example 258, {1-{1-[(1-methyl-1H-imidazol-4-yl)sulfonyl]piperidin-4-yl}-3-[4-(7H-pyrrolo[2,3-d]pyrimidin-4-yl)-1H-pyrazol-1-yl]azetidin-3-yl}acetonitrile] |
| ≤ 10 | ≤ 5 | 4.6 | Cc1nc(S(=O)(=O)N2CCC(N3CC(CC#N)(n4cc(-c5ncnc6[nH]ccc56)cn4)C3)CC2)cn1C [Example 259, {1-{1-[(1,2-dimethyl-1H-imidazol-4-yl)sulfonyl]piperidin-4-yl}-3-[4-(7H-pyrrolo[2,3-d]pyrimidin-4-yl)-1H-pyrazol-1-yl]azetidin-3-yl}acetonitrile] |
| 10 to 50 | ≤ 5 | 7.1 | Cc1noc(C)c1S(=O)(=O)N1CCC(N2CC(CC#N)(n3cc(-c4ncnc5[nH]ccc45)cn3)C2)CC1 [Example 260, {1-{1-[(3,5-dimethylisoxazol-4-yl)sulfonyl]piperidin-4-yl}-3-[4-(7H-pyrrolo[2,3-d]pyrimidin-4-yl)-1H-pyrazol-1-yl]azetidin-3-yl}acetonitrile] |
| > 100 | 5 to 20 | 20.8 | N#CCC1(n2ccc(-c3ncnc4[nH]ccc34)c2)CN(C2CCN(C(=O)c3ccnc(C(F)(F)F)c3F)CC2)C1 [Example 261, {1-{1-[3-Fluoro-2-(trifluoromethyl)isonicotinoyl]piperidin-4-yl}-3-[3-(7H-pyrrolo[2,3-d]pyrimidin-4-yl)-1H-pyrrol-1-yl]azetidin-3-yl}acetonitrile] |
| 50 to 100 | 5 to 20 | 7.4 | N#CCC1(n2ccc(-c3ncnc4[nH]ccc34)c2)CN(C2CCN(C(=O)c3cccc(C#N)c3)CC2)C1 [Example 262, 3-[(4-{3-(cyanomethyl)-3-[3-(7H-pyrrolo[2,3-d]pyrimidin-4-yl)-1H-pyrrol-1-yl]azetidin-1-yl}piperidin-1-yl)carbonyl]benzonitrile] |
| 50 to 100 | ≤ 5 | 12.2 | N#CCC1(n2ccc(-c3ncnc4[nH]ccc34)c2)CN(C2CCN(C(=O)c3cc(F)cc(C#N)c3)CC2)C1 [Example 263, 3-[(4-{3-(cyanomethyl)-3-[3-(7H-pyrrolo[2,3-d]pyrimidin-4-yl)-1H-pyrrol-1-yl]azetidin-1-yl}piperidin-1-yl)carbonyl]-5-fluorobenzonitrile] |
| 50 to 100 | 5 to 20 | 9.5 | N#CCC1(n2ccc(-c3ncnc4[nH]ccc34)c2)CN(C2CCN(C(=O)c3ccc(C#N)cc3F)CC2)C1 [Example 264, 4-[(4-{3-(cyanomethyl)-3-[3-(7H-pyrrolo[2,3-d]pyrimidin-4-yl)-1H-pyrrol-1-yl]azetidin-1-yl}piperidin-1-yl)carbonyl]-3-fluorobenzonitrile] |
| 50 to 100 | 5 to 20 | 6.6 | N#CCC1(n2ccc(-c3ncnc4[nH]ccc34)c2)CN(C2CCN(C(=O)c3c(F)cc(C#N)cc3F)CC2)C1 [Example 265, 4-[(4-{3-(cyanomethyl)-3-[3-(7H-pyrrolo[2,3-d]pyrimidin-4-yl)-1H-pyrrol-1-yl]azetidin-1-yl}piperidin-1-yl)carbonyl]-3,5-difluorobenzonitrile] |
| 50 to 100 | 5 to 20 | 6.6 | N#CCC1(n2ccc(-c3ncnc4[nH]ccc34)c2)CN(C2CCN(C(=O)c3cc(F)ccc3C(F)(F)F)CC2)C1 [Example 266, {1-{1-[5-fluoro-2-(trifluoromethyl)benzoyl]piperidin-4-yl}-3-[3-(7H-pyrrolo[2,3-d]pyrimidin-4-yl)-1H-pyrrol-1-yl]azetidin-3-yl}acetonitrile] |

| SMILES | IC50 (Jak2 (a.a. 828-1132)) [nM] | IC50 [1] [nM] | IC50 Ratio JAK2/JAK1 [2] |
| --- | --- | --- | --- |
| N#CCC1(n2cc(-c3ncnc4[nH]ccc34)cn2)CN(C2CC3CCC(C2)N3Cc2c(F)ccc(F)c2Cl)C1 (stereo not drawn) [Example 241, {1-[8-(2-Chloro-3,6-difluorobenzyl)-8-azabicyclo[3.2.1]oct-3-yl]-3-[4-(7H-pyrrolo[2,3-d]pyrimidin-4-yl)-1H-pyrazol-1-yl]azetidin-3-yl}acetonitrile] | ≤ 10 | ≤ 5 | 3.8 |
